The values that follow come from ChEMBL document CHEMBL1125983, “Synthesis and evaluation of new protein-tyrosine kinase inhibitors. Part 2. Phenylhydrazones” (Bioorg Med Chem Lett, 1991).

Tyrosine-protein kinase Lck, sequence (P06239 whole entry): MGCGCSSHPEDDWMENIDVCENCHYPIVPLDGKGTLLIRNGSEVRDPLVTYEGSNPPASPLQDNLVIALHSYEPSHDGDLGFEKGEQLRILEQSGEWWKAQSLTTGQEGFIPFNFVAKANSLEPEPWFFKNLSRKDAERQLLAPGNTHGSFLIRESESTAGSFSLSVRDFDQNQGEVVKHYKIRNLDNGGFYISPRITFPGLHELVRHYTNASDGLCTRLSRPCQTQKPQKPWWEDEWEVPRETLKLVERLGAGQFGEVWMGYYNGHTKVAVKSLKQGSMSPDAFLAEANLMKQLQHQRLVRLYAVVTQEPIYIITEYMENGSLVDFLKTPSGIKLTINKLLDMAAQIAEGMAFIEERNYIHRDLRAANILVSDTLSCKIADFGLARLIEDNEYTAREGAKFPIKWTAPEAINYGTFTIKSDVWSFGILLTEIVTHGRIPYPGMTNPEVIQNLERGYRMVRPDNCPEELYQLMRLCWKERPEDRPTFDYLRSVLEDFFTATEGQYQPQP

This assay concerns the target Tyrosine-protein kinase Lck (Homo sapiens, UniProt P06239). The experiment in a line: Inhibitory concentration against phosphorylation of angiotensin I catalyzed by protein-tyrosine kinase p56lck.
As usually defined, the IC50 is the concentration needed to halve the response being measured. `COc1ccc(N/N=C/c2cccc(O)c2O)cc1`: 310 µM corresponded to half-maximal inhibition (IC50).

On to `C(=N\Nc1ccccc1)/c1ccncc1`, for which the IC50 was greater than 4060 µM.

Regarding `O=[N+]([O-])c1ccc(N/N=C/c2ccc(O)c(O)c2O)c([N+](=O)[O-])c1`, half-maximal inhibition (IC50) was put at 144 µM.

As to `COc1ccc(/C=N/Nc2ccc(Br)cc2)cc1O`, the IC50 is greater than 2490 µM.

Compound `COc1cc(/C=N/Nc2ccccc2)ccc1O` showed an IC50 of 2590 µM.

As for `Oc1ccc(/C=N/Nc2ccccn2)cc1O`, the IC50 is 227 µM.

Turning to `Oc1ccc(/C=N/Nc2ccc(Br)cc2)c(O)c1O`, the IC50 was 1040 µM.

The compound `O=[N+]([O-])c1cccc(/C=N/Nc2ccccc2)c1` registered an IC50 greater than 3320 µM.

In turn, `O=[N+]([O-])c1ccc(N/N=C/c2ccc(O)cc2O)c([N+](=O)[O-])c1` showed a 50% inhibitory concentration (IC50) of 1000 µM.

Compound `Oc1ccc(/C=N/Nc2ccccn2)c(O)c1` returned a concentration for half-maximal inhibition (IC50) of 1010 µM.

`C(=N\Nc1ccccc1)/c1cccnc1` came in with an IC50 of 1320 µM.

As for `Oc1ccc(O)c(/C=N/Nc2ccccc2)c1`, the IC50 was greater than 3500 µM.

Regarding `COc1ccc(N/N=C/c2cc(O)ccc2O)cc1`, 310 µM corresponded to half-maximal inhibition (IC50).

Compound `Brc1ccc(N/N=C/c2ccncc2)cc1` gave a concentration for half-maximal inhibition (IC50) greater than 2900 µM.

For the compound `Brc1ccc(N/N=C/c2ccccn2)cc1`, the IC50 was greater than 2900 µM.

`Oc1cccc(/C=N/Nc2ccccc2)c1O` yielded an IC50 of 1260 µM.

Consider `Oc1ccc(/C=N/Nc2ccccc2)cc1O`, for which the IC50 turned out to be 70 µM.

In turn, `Oc1cc(/C=N/Nc2ccccn2)cc(O)c1O` registered an IC50 of 179 µM.

`Oc1ccc(/C=N/Nc2ccc(Br)cc2)c(O)c1` returned an IC50 of 521 µM.

In the case of `Oc1ccc(Br)cc1/C=N/Nc1ccccc1`, the IC50 is greater than 2600 µM.

In the case of `C(=N\Nc1ccccn1)/c1cccnc1`, half-maximal inhibition (IC50) was put at 400 µM.

With `Brc1ccc(N/N=C/c2cccnc2)cc1`, the IC50 is greater than 2900 µM.

In turn, `Oc1ccc(Br)cc1/C=N/Nc1ccc(Br)cc1` showed an IC50 greater than 2160 µM.

The compound `COc1ccc(/C=N/Nc2ccccc2)cc1O` returned a half-inhibitory concentration (IC50) of 2110 µM.

`COc1ccc(N/N=C/c2ccc(O)c(O)c2)cc1`: it took 743 µM to reach half-maximal inhibition (IC50). Compared with the last compound, the IC50 is about 2.8-fold lower.

For the compound `Oc1ccc(/C=N/Nc2ccccn2)c(O)c1O`, the midpoint of inhibition, the IC50, lay at 522 µM.

For `O=[N+]([O-])c1ccc(/C=N/Nc2ccccc2)cc1`, the IC50 was greater than 3320 µM.

In turn, `C(=N\Nc1ccccc1)/c1ccccn1` returned an IC50 greater than 4060 µM.

For the compound `Oc1ccc(/C=N/Nc2ccccc2)c(O)c1O`, the IC50 came out at 1570 µM. In other words, the millimolar range.

Turning to `O=[N+]([O-])c1ccc(N/N=C/c2cccc(O)c2O)c([N+](=O)[O-])c1`, the concentration for half-maximal inhibition (IC50) was greater than 2510 µM.

For the compound `Oc1ccc(/C=N/Nc2ccccc2)c(O)c1`, half-maximal inhibition (IC50) was put at 350 µM.

For the compound `Oc1ccc(/C=N/Nc2ccc(Br)cc2)cc1O`, half-maximal inhibition (IC50) required 599 µM.

Consider `O=[N+]([O-])c1ccc(N/N=C/c2ccc(O)c(O)c2)c([N+](=O)[O-])c1`, for which the IC50 was 352 µM.
